In experiment [1] the test system is Tyk2 kinase activity on STAT4. As to the kind of experiment: pSTAT4 cell assay (MSD, NK92 cells). The experiment is classed as cell-based. The note with it: compounds 1 hr, stimulated 15 minutes. In outline:
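Read-out: phospho-STAT in NK92 lysates, MSD format, anti-STAT4 antibodies. Cells were serum-starved, given compound for 1 hr (10 μM top, four-fold, 10 points) and IL2-stimulated (30 ng/mL, 15 min). Normalized percent activity vs log concentration, 4-parameter logistic fit gave IC50.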

Another experiment addresses T1, JH2 domain of human Tyk2 (Homo sapiens, UniProt P29597).
T1 construct: 10×His-tagged TYK2 JH2 domain (amino acid 575-876)
The experiment in a line: JH2 biochemical assay (TR-FRET probe displacement). The note with it: JH2 biochemical assay. It is filed as binding. The gist of the method: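 A probe-displacement TR-FRET readout: compounds, tested in 3-fold, 10-point dilutions starting at […], compete with 2 nM tracer for 2 nM His-tagged JH2 (residues 575-876) detected by 0.1 nM Tb-anti-His over 60 min. IC50 comes from 4-parameter fits of normalized 520/495 nm ratios.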
For orientation: In TR-FRET formats the signal depends on donor and acceptor labels being close together.

From patent US20260258032A1, “TYROSINE KINASE 2 INHIBITORS AND USES THEREOF” (BIOGEN MA INC., priority 2022, published 2026) come the findings set out here.

In general, IC50 refers to the concentration at which inhibition is half-maximal.

T1 sequence (P29597 575-876): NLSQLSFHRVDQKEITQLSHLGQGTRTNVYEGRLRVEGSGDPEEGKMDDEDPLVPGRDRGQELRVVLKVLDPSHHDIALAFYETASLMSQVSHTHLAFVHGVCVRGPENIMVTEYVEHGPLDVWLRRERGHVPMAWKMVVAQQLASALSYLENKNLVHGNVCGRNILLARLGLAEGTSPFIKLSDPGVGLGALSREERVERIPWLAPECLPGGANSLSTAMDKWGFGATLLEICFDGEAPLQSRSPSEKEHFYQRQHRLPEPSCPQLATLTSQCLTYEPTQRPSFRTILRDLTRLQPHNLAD

For `CC(=O)Nc1cc2c(cn1)C1(CC1)CN2c1cc(C)cc(C2(O)CCOC2)n1` (stereo not shown) [Example 95, N-(1′-(6-(3-hydroxytetrahydrofuran-3-yl)-4-methylpyridin-2-yl)-1′,2′-dihydrospiro[cyclopropane-1,3′-pyrrolo[3,2-c]pyridin]-6′-yl)acetamide], the IC50 in experiment [1] was 100 to 1000 nM; at JH2 domain of human Tyk2, not above 10 nM.
`CC(=O)Nc1cc2c(cn1)C1(CC1)CN2c1cc(C)nc(C(C)S(C)(=O)=O)n1` (stereo not shown) [Example 97, N-(1′-(6-methyl-2-(1-(methylsulfonyl)ethyl)pyrimidin-4-yl)-1′,2′-dihydrospiro[cyclopropane-1,3′-pyrrolo[3,2-c]pyridin]-6′-yl)acetamide]: the IC50 was 100 to 1000 nM in experiment [1] and not above 10 nM at JH2 domain of human Tyk2.
As to `CC(=O)Nc1cc2c(cn1)C1(CC1)CN2c1cc(C)nc(C2CCS(=O)(=O)C2)n1` (stereo not shown) [Example 98, N-(1′-(2-(1,1-dioxidotetrahydrothiophen-3-yl)-6-methylpyrimidin-4-yl)-1′,2′-dihydrospiro[cyclopropane-1,3′-pyrrolo[3,2-c]pyridin]-6′-yl)acetamide], the IC50 in experiment [1] was not below 1000 nM; on JH2 domain of human Tyk2, 10 to 100 nM.
Taken in the same sequence, the figures for `COCCOc1ccnc(N2CC3(CC3)c3cnc(NC(C)=O)cc32)n1` [Example 99, N-(1′-(4-(2-methoxyethoxy)pyrimidin-2-yl)-1′,2′-dihydrospiro[cyclopropane-1,3′-pyrrolo[3,2-c]pyridin]-6′-yl)acetamide] were not below 1000 nM and 10 to 100 nM.
For the compound `CC(=O)Nc1cc2c(cn1)C1(CC1)CN2c1cc(C)nc(-n2cccn2)n1` [Example 100, N-(1′-(6-methyl-2-(1H-pyrazol-1-yl)pyrimidin-4-yl)-1′,2′-dihydrospiro[cyclopropane-1,3′-pyrrolo[3,2-c]pyridin]-6′-yl)acetamide], the IC50 is not below 1000 nM in experiment [1] and 10 to 100 nM on JH2 domain of human Tyk2.
Take `CC(=O)Nc1cc2c(cn1)C1(CC1)CN2c1cncc(C(C)(F)F)n1` [Example 101, N-(1′-(6-(1,1-difluoroethyl)pyrazin-2-yl)-1′,2′-dihydrospiro[cyclopropane-1,3′-pyrrolo[3,2-c]pyridin]-6′-yl)acetamide]: the IC50 in experiment [1] is 100 to 1000 nM; at JH2 domain of human Tyk2 it was not above 10 nM.
`CC(=O)Nc1cc2c(cn1)C1(CC1)CN2c1cc(C)nc(C2CCOC2)n1` (stereo not shown) [Example 103, N-(1′-(6-methyl-2-(tetrahydrofuran-3-yl)pyrimidin-4-yl)-1′,2′-dihydrospiro[cyclopropane-1,3′-pyrrolo[3,2-c]pyridin]-6′-yl)acetamide]: the IC50 in experiment [1] is 100 to 1000 nM; at JH2 domain of human Tyk2 it was not above 10 nM.
Turning to `COC1(c2nc(C)cc(N3CC4(CC4)c4cnc(NC(C)=O)cc43)n2)CCC1` [Example 104, N-(1′-(2-(1-methoxycyclobutyl)-6-methylpyrimidin-4-yl)-1′,2′-dihydrospiro[cyclopropane-1,3′-pyrrolo[3,2-c]pyridin]-6′-yl)acetamide], the IC50 in experiment [1] was 100 to 1000 nM; on JH2 domain of human Tyk2, not above 10 nM.
With `CC(=O)Nc1cc2c(cn1)C1(CC1)CN2c1cc(C)nc(N2CCCCC2)n1` [Example 113, N-(1′-(6-methyl-2-(piperidin-1-yl)pyrimidin-4-yl)-1′,2′-dihydrospiro[cyclopropane-1,3′-pyrrolo[3,2-c]pyridin]-6′-yl)acetamide], the results for the IC50 (in experiment [1]; at JH2 domain of human Tyk2) were not below 1000 nM and 10 to 100 nM, respectively.
Regarding `CC(=O)Nc1cc2c(cn1)C1(CC1)CN2c1cc(C)nc(N2CCCC2)n1` [Example 114, N-(1′-(6-methyl-2-(pyrrolidin-1-yl)pyrimidin-4-yl)-1′,2′-dihydrospiro[cyclopropane-1,3′-pyrrolo[3,2-c]pyridin]-6′-yl)acetamide], the figures for the IC50 (in experiment [1]; on JH2 domain of human Tyk2) were 100 to 1000 nM and 10 to 100 nM, respectively.
As for `CC(=O)Nc1cc2c(cn1)C1(CC1)CN2c1cc(C)nc(N(C)C)n1` [Example 116, N-(1′-(2-(dimethylamino)-6-methylpyrimidin-4-yl)-1′,2′-dihydrospiro[cyclopropane-1,3′-pyrrolo[3,2-c]pyridin]-6′-yl)acetamide], the IC50 in experiment [1] was not below 1000 nM; at JH2 domain of human Tyk2, 10 to 100 nM.
Take `CC(=O)Nc1cc2c(cn1)C1(CC1)CN2c1cc(C)nc(C2CCCN(S(C)(=O)=O)C2)n1` (stereo not shown) [Example 119, N-(1′-(6-methyl-2-(1-(methylsulfonyl)piperidin-3-yl)pyrimidin-4-yl)-1′,2′-dihydrospiro[cyclopropane-1,3′-pyrrolo[3,2-c]pyridin]-6′-yl)acetamide]: the IC50 fell in the range of 100 to 1000 nM in experiment [1] and 10 to 100 nM on JH2 domain of human Tyk2.
The matching figures for `CC(=O)Nc1cc2c(cn1)C1(CC1)CN2c1cc(C)nc(C2CCN(C(C)=O)CC2)n1` [Example 120, N-(1′-(2-(1-acetylpiperidin-4-yl)-6-methylpyrimidin-4-yl)-1′,2′-dihydrospiro[cyclopropane-1,3′-pyrrolo[3,2-c]pyridin]-6′-yl)acetamide]: not below 1000 nM and 100 to 1000 nM.
As to `CC(=O)Nc1cc2c(cn1)C1(CC1)CN2c1cc(C)nc(C2CCN(S(C)(=O)=O)CC2)n1` [Example 122, N-(1′-(6-methyl-2-(1-(methylsulfonyl)piperidin-4-yl)pyrimidin-4-yl)-1′,2′-dihydrospiro[cyclopropane-1,3′-pyrrolo[3,2-c]pyridin]-6′-yl)acetamide], the IC50 in experiment [1] was not below 1000 nM; at JH2 domain of human Tyk2, 100 to 1000 nM.
For `CC(=O)Nc1cc2c(cn1)C1(CC1)CN2c1cc(C)nc(C2CC2C)n1` (stereo not shown) [Example 123, N-(1′-(6-methyl-2-(2-methylcyclopropyl)pyrimidin-4-yl)-1′,2′-dihydrospiro[cyclopropane-1,3′-pyrrolo[3,2-c]pyridin]-6′-yl)acetamide], the IC50 in experiment [1] is 100 to 1000 nM; on JH2 domain of human Tyk2, not above 10 nM.
Taken in the same sequence, the figures for `CC(=O)Nc1cc2c(cn1)C1(CC1)CN2c1cc(C)nc(CO)n1` [Example 126, N-(1′-(2-(hydroxymethyl)-6-methylpyrimidin-4-yl)-1′,2′-dihydrospiro[cyclopropane-1,3′-pyrrolo[3,2-c]pyridin]-6′-yl)acetamide] were not below 1000 nM and 10 to 100 nM.
Turning to `CC(=O)Nc1cc2c(cn1)C1(CC1)CN2c1nc(C(C)(F)F)nc(C)c1F` [Example 127, N-(1′-(2-(1,1-difluoroethyl)-5-fluoro-6-methylpyrimidin-4-yl)-1′,2′-dihydrospiro[cyclopropane-1,3′-pyrrolo[3,2-c]pyridin]-6′-yl)acetamide], the values for the IC50 (in experiment [1]; on JH2 domain of human Tyk2) were 100 to 1000 nM and not above 10 nM, respectively.
Take `CC(=O)Nc1cc2c(cn1)C1(CC1)CN2c1nc(C(C)(F)F)ncc1F` [Example 128, N-(1′-(2-(1,1-difluoroethyl)-5-fluoropyrimidin-4-yl)-1′,2′-dihydrospiro[cyclopropane-1,3′-pyrrolo[3,2-c]pyridin]-6′-yl)acetamide]: the IC50 in experiment [1] is not below 1000 nM; on JH2 domain of human Tyk2, 10 to 100 nM.
On to `COC(C)(C)c1nc(C)cc(N2CC3(CC3)c3cnc(NC(C)=O)cc32)n1` [Example 129, N-(1′-(2-(2-methoxypropan-2-yl)-6-methylpyrimidin-4-yl)-1′,2′-dihydrospiro[cyclopropane-1,3′-pyrrolo[3,2-c]pyridin]-6′-yl)acetamide], for which the IC50 in experiment [1] is 100 to 1000 nM; on JH2 domain of human Tyk2 it was 10 to 100 nM.
On to `COC(C)c1nc(C)cc(N2CC3(CC3)c3cnc(NC(C)=O)cc32)n1` (stereo not shown) [Example 130, N-(1′-(2-(1-methoxyethyl)-6-methylpyrimidin-4-yl)-1′,2′-dihydrospiro[cyclopropane-1,3′-pyrrolo[3,2-c]pyridin]-6′-yl)acetamide], for which the IC50 in experiment [1] is 100 to 1000 nM; on JH2 domain of human Tyk2 it was not above 10 nM.
